Source: US20090311237A1, “Combination therapy using a soluble hyaluronidase and a bisphosphonate” (priority 2008, published 2009)
Read-outs that look alike come from different tables or passages of the source.

Test: Phase 1 Stage 1 clinical pharmacokinetics of SC ZA co-administered with rHuPH20
Format: in vivo, human
Settings: human, serum, sc; for MRT: read-out: MRT; for Tmax: read-out: Tmax; for AUC(0-inf): read-out: AUC (0-∞); for AUC(0-t): ZA […] SC
Description: A pharmacokinetic study of zoledronic acid (ZA) co-administered with rHuPH20 in human subjects was conducted. The primary objective of the study was to determine the bioavailability of zoledronic acid dosed via subcutaneous (SC) co-administration with human recombinant hyaluronidase PH20 (rHuPH20). […] The patients were administered the prescribed dosage formulations as follows: Cohorts 1-5 were administered a single subcutaneous infusion in a dosage volume of 100 ml at a rate of 3 mL/min. […] The dosing solution is administered via needle or catheter into the SC space of the left anterior thigh (midway between the anterior iliac crest and the cephalad border of the patella). For cohorts 1-5, the dosing solutions were administered by a controlled rate infusion pump at approximately 3 mL/minute. […] The dosing solutions were administered by syringe push bolus injection. […] Serum concentration of ZA was determined using a qualified LC-MS-MS assay after derivatization with diazomethane (Zhu, L S et al. (2006) Rapid Commun. […] The assay range was from 2.0 to 400 ng/mL with a lower limit of quantitation (LLOQ) at 2.0 ng/mL. […] Non-compartmental analysis was used for derivation of primary and secondary pharmacokinetic (PK) parameters. […] Summary statistics (mean, standard deviation, and median) were calculated using JMP or Microsoft Excel.

[1] = ZA 1 mg SC + 24000 U rHuPH20, individual subjects
[2] = ZA 1 mg SC + 24000 U rHuPH20, mean, n=3
[3] = ZA 1 mg SC + 24000 U rHuPH20, median, n=3
[4] = ZA 2 mg SC + 24000 U rHuPH20, individual subjects
[5] = ZA 2 mg SC + 24000 U rHuPH20, mean, n=3
[6] = ZA 2 mg SC + 24000 U rHuPH20, median, n=3
[7] = ZA 5 mg SC + 24000 U rHuPH20, individual subjects
[8] = ZA 5 mg SC + 24000 U rHuPH20, mean, n=3
[9] = ZA 5 mg SC + 24000 U rHuPH20, median, n=3

SMILES: O=P(O)(O)C(O)(Cn1ccnc1)P(=O)(O)O [ZA, 1-hydroxy-2-(1H-imidazol-1-yl)ethylidene-1,1-bisphosphonic acid]
- MRT [1]: 6.93 h
- Tmax [1]: 1.31 h
- Vd/F (ZA 1 mg SC + 24000 U rHuPH20, individual subjects, read-out: Vss/F): 0.988 L/kg
- Vd/F (ZA 1 mg SC + 24000 U rHuPH20, individual subjects, read-out: Vz/F): 2.65 L/kg
- CL/F [2]: 2.15 mL/min/kg
- Cmax [2]: 29.5 ng/mL
- AUC(0-inf) [2]: 134 ng·h/mL
- MRT [2]: 6.61 h
- Tmax [2]: 1.03 h
- Vd/F (ZA 1 mg SC + 24000 U rHuPH20, mean, n=3, read-out: Vss/F): 0.852 L/kg
- Vd/F (ZA 1 mg SC + 24000 U rHuPH20, mean, n=3, read-out: Vz/F): 2.13 L/kg
- CL/F [3]: 2.38 mL/min/kg
- Cmax [3]: 30.1 ng/mL
- AUC(0-inf) [3]: 122 ng·h/mL
- MRT [3]: 6.66 h
- Tmax [3]: 1.06 h
- Vd/F (ZA 1 mg SC + 24000 U rHuPH20, median, n=3, read-out: Vss/F): 0.988 L/kg
- Vd/F (ZA 1 mg SC + 24000 U rHuPH20, median, n=3, read-out: Vz/F): 2.05 L/kg
- CL/F [4]: 2.25 mL/min/kg
- Cmax [4]: 62.8 ng/mL
- AUC(0-inf) [4]: 246 ng·h/mL
- MRT [4]: 5.72 h
- Tmax [4]: 1.31 h
- Vd/F (ZA 2 mg SC + 24000 U rHuPH20, individual subjects, read-out: Vss/F): 0.774 L/kg
- Vd/F (ZA 2 mg SC + 24000 U rHuPH20, individual subjects, read-out: Vz/F): 2.48 L/kg
- CL/F [5]: 2.11 mL/min/kg
- Cmax [5]: 58.2 ng/mL
- AUC(0-inf) [5]: 262 ng·h/mL
- MRT [5]: 7.5 h
- Tmax [5]: 1.48 h
- Vd/F (ZA 2 mg SC + 24000 U rHuPH20, mean, n=3, read-out: Vss/F): 0.941 L/kg
- Vd/F (ZA 2 mg SC + 24000 U rHuPH20, mean, n=3, read-out: Vz/F): 2.87 L/kg
- CL/F [6]: 2.06 mL/min/kg
- Cmax [6]: 58.7 ng/mL
- AUC(0-inf) [6]: 246 ng·h/mL
- MRT [6]: 6.19 h
- Tmax [6]: 1.56 h
- Vd/F (ZA 2 mg SC + 24000 U rHuPH20, median, n=3, read-out: Vss/F): 0.774 L/kg
- Vd/F (ZA 2 mg SC + 24000 U rHuPH20, median, n=3, read-out: Vz/F): 2.48 L/kg
- CL/F [7]: 2.11 mL/min/kg
- Cmax [7]: 131 ng/mL
- AUC(0-inf) [7]: 620 ng·h/mL
- MRT [7]: 10.9 h
- Tmax [7]: 0.81 h
- Vd/F (ZA 5 mg SC + 24000 U rHuPH20, individual subjects, read-out: Vss/F): 1.39 L/kg
- Vd/F (ZA 5 mg SC + 24000 U rHuPH20, individual subjects, read-out: Vz/F): 4.27 L/kg
- CL/F [8]: 1.85 mL/min/kg
- Cmax [8]: 132 ng/mL
- AUC(0-inf) [8]: 662 ng·h/mL
- MRT [8]: 12.5 h
- Tmax [8]: 0.98 h
- Vd/F (ZA 5 mg SC + 24000 U rHuPH20, mean, n=3, read-out: Vss/F): 1.38 L/kg
- Vd/F (ZA 5 mg SC + 24000 U rHuPH20, mean, n=3, read-out: Vz/F): 3.92 L/kg
- CL/F [9]: 1.85 mL/min/kg
- Cmax [9]: 131 ng/mL
- AUC(0-inf) [9]: 637 ng·h/mL
- MRT [9]: 12.7 h
- Tmax [9]: 0.81 h
- Vd/F (ZA 5 mg SC + 24000 U rHuPH20, median, n=3, read-out: Vss/F): 1.39 L/kg
- Vd/F (ZA 5 mg SC + 24000 U rHuPH20, median, n=3, read-out: Vz/F): 3.91 L/kg
- AUC(0-t) (AUC (0-12 h), Subj 1, inf 0.554 hr, PH20 23928 U): 29.2 ng·h/mL
- AUC(0-t) (AUC (0-12 h), Subj 8, inf 0.531 hr, PH20 22944 U): 28.8 ng·h/mL
- AUC(0-t) (AUC (0-12 h), Subj 11, inf 0.554 hr, PH20 23928 U): 29.4 ng·h/mL
- AUC(0-t) (AUC (0-12 h), Subj 16, inf 0.553 hr, PH20 23904 U): 60.8 ng·h/mL
- AUC(0-t) (AUC (0-12 h), Subj 18, inf […], PH20 23304 U): 66.2 ng·h/mL
- AUC(0-t) (AUC (0-12 h), Subj 21, inf 0.556 hr, PH20 24000 U): 62.4 ng·h/mL
- AUC(0-t) (AUC (0-12 h), Subj 25, inf 0.549 hr, PH20 23736 U): 103 ng·h/mL
- AUC(0-t) (AUC (0-12 h), Subj 26, inf […], PH20 23088 U): 137 ng·h/mL
- AUC(0-t) (AUC (0-12 h), Subj 31, inf 0.554 hr, PH20 23952 U): 213 ng·h/mL
- AUC(0-t) (AUC (0-12 h), Subj 32, inf 0.556 hr, PH20 24000 U): 238 ng·h/mL
- AUC(0-t) (AUC (0-12 h), Subj 51, inf 0.251 hr, PH20 6024 U): 384 ng·h/mL
- AUC(0-t) (AUC (0-12 h), Subj 77, inf […], PH20 6000 U): 516 ng·h/mL
- AUC(0-t) (AUC (0-24 h), Subj 1, inf 0.554 hr, PH20 23928 U): 29.4 ng·h/mL
- AUC(0-t) (AUC (0-24 h), Subj 8, inf 0.531 hr, PH20 22944 U): 29.4 ng·h/mL
- AUC(0-t) (AUC (0-24 h), Subj 11, inf 0.554 hr, PH20 23928 U): 29.9 ng·h/mL
- AUC(0-t) (AUC (0-24 h), Subj 16, inf 0.553 hr, PH20 23904 U): 62.9 ng·h/mL
- AUC(0-t) (AUC (0-24 h), Subj 18, inf […], PH20 23304 U): 68.5 ng·h/mL
- AUC(0-t) (AUC (0-24 h), Subj 21, inf 0.556 hr, PH20 24000 U): 64.7 ng·h/mL
- AUC(0-t) (AUC (0-24 h), Subj 25, inf 0.549 hr, PH20 23736 U): 112 ng·h/mL
- AUC(0-t) (AUC (0-24 h), Subj 26, inf […], PH20 23088 U): 147 ng·h/mL
- AUC(0-t) (AUC (0-24 h), Subj 31, inf 0.554 hr, PH20 23952 U): 228 ng·h/mL
- AUC(0-t) (AUC (0-24 h), Subj 32, inf 0.556 hr, PH20 24000 U): 257 ng·h/mL
- AUC(0-t) (AUC (0-24 h), Subj 51, inf 0.251 hr, PH20 6024 U): 430 ng·h/mL
- AUC(0-t) (AUC (0-24 h), Subj 77, inf […], PH20 6000 U): 566 ng·h/mL
- AUC(0-t) (AUC (0-48 h), Subj 1, inf 0.554 hr, PH20 23928 U): 29.4 ng·h/mL
- AUC(0-t) (AUC (0-48 h), Subj 8, inf 0.531 hr, PH20 22944 U): 29.4 ng·h/mL
- AUC(0-t) (AUC (0-48 h), Subj 11, inf 0.554 hr, PH20 23928 U): 29.9 ng·h/mL
- AUC(0-t) (AUC (0-48 h), Subj 16, inf 0.553 hr, PH20 23904 U): 64.2 ng·h/mL
